{"source": "BindingDB's records for PubMed 36262403", "about": "(Abbvie, 2022)", "target": "T1, P2X purinoceptor 7 (Rattus norvegicus, UniProt Q64663)", "T1 sequence (Q64663 whole entry)": "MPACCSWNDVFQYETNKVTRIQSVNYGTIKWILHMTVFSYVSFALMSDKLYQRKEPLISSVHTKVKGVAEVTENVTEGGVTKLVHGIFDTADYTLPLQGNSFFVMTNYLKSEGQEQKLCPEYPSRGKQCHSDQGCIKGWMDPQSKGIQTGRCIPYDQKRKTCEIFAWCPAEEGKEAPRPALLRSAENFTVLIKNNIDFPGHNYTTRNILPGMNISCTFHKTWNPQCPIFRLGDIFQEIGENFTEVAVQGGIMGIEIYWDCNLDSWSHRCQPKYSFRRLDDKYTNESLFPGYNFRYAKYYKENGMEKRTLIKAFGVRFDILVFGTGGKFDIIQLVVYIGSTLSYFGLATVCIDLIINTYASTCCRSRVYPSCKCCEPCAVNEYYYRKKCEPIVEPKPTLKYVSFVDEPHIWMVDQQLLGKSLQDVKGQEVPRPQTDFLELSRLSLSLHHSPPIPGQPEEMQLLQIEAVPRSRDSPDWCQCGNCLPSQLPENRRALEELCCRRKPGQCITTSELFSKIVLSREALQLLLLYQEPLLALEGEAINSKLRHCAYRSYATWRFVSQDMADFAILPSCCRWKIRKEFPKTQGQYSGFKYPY", "assay": "Antagonist activity against rat P2X7R expressed in human 1321N1 cell membrane incubated for 1 hrs by radioligand binding assay", "data": [{"smiles": "C[C@H](NC(=Nc1cccc2ncccc12)NC#N)c1ccccc1", "note": "[[3H]A-804598]", "values": [{"measurement": "IC50", "result": 10, "unit": "nM"}]}]}
